Read-outs that look alike come from different tables or passages of the source. Positions of bridges follow the written chain, without caps; N, C: chain ends. Non-standard residues stand in square brackets, D forms with d. Residues, ends and D or L forms follow the SMILES beside them. *: point of attachment. Heptanoyl(5-Me) = CCC(C)CCCC(=O)*; Dab = NCC[C@H](N)C(=O)O
What was measured:
A. nosocomialis 1461911 = assay: Checkerboard analysis MIC/FIC and MBC/FBC, colistin sulphate plus teicoplanin; assay type: cell-based; conditions: agent alone, CAMHB, inoculum 5*10^5 CFU/ml; for MIC: A. nosocomialis 1461911, 24 h; for MBC: A. nosocomialis
Protocol: (§1) Checkerboard analysis to determine minimal inhibitory concentration (MIC)/fractional inhibitory concentration (FIC) and minimal […] (MBC)/fractional […] (FBC) values of colistin sulphate (CS) plus teicoplanin (TP) for 6 Gram-negative strains with a bacterial load 5(1−10)*10^5 CFU/ml in a cation-adjusted Mueller-Hinton broth (CAMHB). • a. Antimicrobial stock solutions were prepared using sterile distilled water • b. CS was added along the ordinate; TP was added along the abscissa to 96 well, flat bottom, polystyrene panels with no treatment. Colistin alone was tested in triplicates. • c. Serial 2-fold dilutions starting with 640 μg/ml CS and 640 μg/ml TP were made; 15 μl volume of the serial dilutions were added for each agent to the appropriate wells; final volume at 30 μl • d. For each agent tested alone an additional 15 μl media was added to the well. 30 μl were added in control wells where none of the agent was tested. The negative control well contains 150 μl media without any additions • e. From an overnight bacterial culture in tryptic soy broth, 100 μl was added to 10 mL of fresh tryptic soy broth. This was then incubated at 37° C. for 1.5 hour at 180 rpm. • f. Bacteria in 120 μl CAMHB were added to each well (end concentration 5(1−10)*10^5 CFU/ml) • g. Plates were incubated at 37° C. in an ambient air incubator for 24 h • h. Turbidity at OD600 is determined with a plate photometer • i. By using a one-time inoculator 3 μl from each well of the 96-well plate were transferred to three blood agar plates. The plates were incubated over night at 37° C. in an ambient air incubator • j. MIC values are defined as lowest concentration which restricts bacterial growth to OD600≤0.1 • k. MBC values were determined by visual reading the lowest concentration which inhibits 99.9% of the growth of bacteria in the wells • l. Determination of the fractional inhibitory concentration (FIC) index and fractional bactericidal concentration (FBC) index and characterization of antimicrobial interactions was assessed • FIC calculation was carried out as: (MIC of drug A, tested in combination)/(MIC of drug A, tested alone)+(MIC of drug B, tested in combination)/(MIC of drug B, tested alone). FBC calculation was carried out just as well • Interactive categories were calculated from checkerboard analysis using MIC results from testing each agent alone and MIC results from the combination wells adjacent to the wells with growth in them […]
b. Indifference; FIC/FBC>0.5 to <4.0 c. Antagonism; FIC/FBC≥4.0 b. A. nosocomialis 1461911 (IHMA), colistin resistant

[1] = test system: stationary bacteria from biofilm; assay: Elimination of stationary bacteria from biofilm (catheter piece in CAMHB); assay type: cell-based; conditions: for Elimination of bacteria from biofilm: conclusion, TEC alone in case a Gram-positive strain is tested; for Colony counts, incubated with as compared without a catheter piece / Increase (at least two dilution steps) of MIC, incubated with as compared without a catheter piece: tubes showing no gross turbidity; for Colony counts, incubated with as compared without a catheter piece: after centrifugation, any of the strains tested, TEC mono in case a Gram-positive strain is tested; for Increase (at least two dilution steps) of MIC, incubated with as compared without a catheter piece: MIC of CS, or of TEC in case a Gram-positive strain is tested
Protocol: To test the elimination of stationary bacteria from biofilm in vitro in CAMHB comparing combination versus monotherapy the same teicoplanin and colistin (serum) concentrations derived from pharmacokinetic studies are used as above.
Each of the total 16 sets as above is performed in duplicates. Each tube is filled with 5 ml CAMHB and in one of each duplicates a 2 cm long piece of a plastic catheter is inserted. Then all tubes are inoculated with the test strain and incubated aerobically at ambient air at 37° C. overnight (16-24 h). The tubes are removed from the incubator and the appropriate blank, mono or combination drug concentrations to be tested are added to each tube and the tubes are incubated aerobically at ambient air at 37° C. for an additional 24 h. The tubes are removed from the incubator and vortexed for about 10 min. Thereafter the catheter pieces from the corresponding one of the duplicates are removed.
From tubes showing growth with turbidity the MIC of CS or TEC in case of testing Gram-positive bacteria for the test strains is determined as above and compared to the original MIC. All tubes showing growth or no growth according to turbidity are centrifuged for 10 min at 3000 rpm and about 100 μL of the sediment is transferred onto IsoSensitest agar plate supplemented with 5% blood (Oxoid) and containing concentrations of CS of 4 mg/L, 8 mg/L, 16 mg/L, and 32 mg/L—or TEC of 4 mg/L, 8 mg/L, 16 mg/L in case a Gram-positive strain is tested. After overnight incubation the number of CFUs growing on the plates containing different CS concentrations—or TEC concentrations in case a Gram-positive strain is tested—are counted.

A. junii 1397597 = assay: Checkerboard analysis MIC/FIC and MBC/FBC, colistin sulphate plus teicoplanin; assay type: cell-based; conditions: agent alone, CAMHB, inoculum 5*10^5 CFU/ml; for MIC: A. junii 1397597, 24 h; for MBC: A. junii
Protocol: as §1
b. Indifference; FIC/FBC>0.5 to <4.0 c. Antagonism; FIC/FBC≥4.0 a. A. junii 1391597 (IHMA), colistin resistant

S. maltophilia 1221783 = assay: as above; assay type: cell-based, Stenotrophomonas maltophilia; conditions: agent alone, CAMHB, inoculum 5*10^5 CFU/ml; for MIC: S. maltophilia 1221783, 24 h; for MBC: S. maltophilia, first line of Table 2 (1221783 by order)
Protocol: as §1
b. Indifference; FIC/FBC>0.5 to <4.0 c. Antagonism; FIC/FBC≥4.0 […]
e. Stenotrophomonas maltophilia 1221783 (IHMA), colistin susceptible

A. haemolyticus 1655843 = assay: as above; assay type: cell-based; conditions: agent alone, CAMHB, inoculum 5*10^5 CFU/ml; for MBC: A. haemolyticus
Protocol: as §1, with “By using a one-time inoculator 3 μl from each well of the 96-well plate were transferred to three blood agar plates. The plates were incubated over night at 37° C. in an ambient air incubator • j. MIC values are defined as lowest concentration which restricts bacterial growth to OD600≤0.1 • k. MBC values were determined by visual reading the lowest concentration which inhibits 99.9% of the growth of bacteria in the wells • l.” left out

A. guillouiae 1285286 = assay: as above; assay type: cell-based; conditions: agent alone, CAMHB, inoculum 5*10^5 CFU/ml; for MIC: A. guillouiae 1285286, 24 h; for MBC: A. guillouiae
Protocol: as §1
b. Indifference; FIC/FBC>0.5 to <4.0 c. Antagonism; FIC/FBC≥4.0 d. A. guillouiae 1285286 (IHMA), colistin resistant

[2] = cited from earlier work
[3] = test system: non-multiplying stationary phase bacteria; assay: Elimination of dormant (resistant) bacteria, long term non-multiplying stationary phase model; assay type: cell-based; conditions: nutrient depleted 5-6 day stationary phase cell suspension in PBS
Protocol: In order to test the elimination of dormant (resistant) bacteria the long term non-multiplying stationary phase model is used (Hu et al 2010 [18]). Long-term stationary phase cultures of 5 to 6 days are chosen with the test strains as described above. These late stationary phase cultures, may represent a mixed population with a dynamic balance of cell division and cell death. In order to induce the bacterial cells into a non-replicating stage, the cells are washed and incubated with PBS. […] The nutrient depleted 5-6 day stationary phase cell suspension now called non-multiplying stationary phase bacteria is used to test TEC and CS as mono substances or in combinations with the concentrations as mentioned above.

S. maltophilia 1237289 = assay: Checkerboard analysis MIC/FIC and MBC/FBC, colistin sulphate plus teicoplanin; assay type: cell-based, Stenotrophomonas maltophilia; conditions: agent alone, CAMHB; for MIC: S. maltophilia 1237289; for MBC: S. maltophilia, second line of Table 2 (1237289 by order)
Protocol: Checkerboard analysis to determine minimal inhibitory concentration (MIC)/fractional inhibitory concentration (FIC) and minimal […] (MBC)/fractional […] (FBC) values of colistin sulphate (CS) plus teicoplanin (TP) for 6 Gram-negative strains with a bacterial load 5(1−10)*10^5 CFU/ml in a cation-adjusted Mueller-Hinton broth (CAMHB). • a. Antimicrobial stock solutions were prepared using sterile distilled water • b. CS was added along the ordinate; TP was added along the abscissa to 96 well, flat bottom, polystyrene panels with no treatment. Colistin alone was tested in triplicates. • c. Serial 2-fold dilutions starting with 640 μg/ml CS and 640 μg/ml TP were made; 15 μl volume of the serial dilutions were added for each agent to the appropriate wells; final volume at 30 μl • d. For each agent tested alone an additional 15 μl media was added to the well. 30 μl were added in control wells where none of the agent was tested. The negative control well contains 150 μl media without any additions • e. From an overnight bacterial culture in tryptic soy broth, 100 μl was added to 10 mL of fresh tryptic soy broth. This was then incubated at 37° C. for 1.5 hour at 180 rpm. • f. Bacteria in 120 μl CAMHB were added to each well (end concentration 5(1−10)*10^5 CFU/ml) • g. Plates were incubated at 37° C. in an ambient air incubator for 24 h • h. Turbidity at OD600 is determined with a plate photometer • i. By using a one-time inoculator 3 μl from each well of the 96-well plate were transferred to three blood agar plates. The plates were incubated over night at 37° C. in an ambient air incubator • j. MIC values are defined as lowest concentration which restricts bacterial growth to OD600≤0.1 • k. MBC values were determined by visual reading the lowest concentration which inhibits 99.9% of the growth of bacteria in the wells • l. Determination of the fractional inhibitory concentration (FIC) index and fractional bactericidal concentration (FBC) index and characterization of antimicrobial interactions was assessed • FIC calculation was carried out as: (MIC of drug A, tested in combination)/(MIC of drug A, tested alone)+(MIC of drug B, tested in combination)/(MIC of drug B, tested alone). FBC calculation was carried out just as well • Interactive categories were calculated from checkerboard analysis using MIC results from testing each agent alone and MIC results from the combination wells adjacent to the wells with growth in them
b. Indifference; FIC/FBC>0.5 to <4.0
c. Antagonism; FIC/FBC≥4.0

For teicoplanin [TP], the MIC (A. nosocomialis 1461911) was over 64 µg/mL, the MBC (A. nosocomialis 1461911) was over 64 µg/mL and the “Elimination of bacteria from biofilm” value [1] was “not so well the case”. For the same compound, the “Colony counts, incubated with as compared without a catheter piece” value [1] was “higher colony counts”, the “Increase (at least two dilution steps) of MIC, incubated with as compared without a catheter piece” value [1] was “about one third” and the MIC (A. junii 1397597) was over 64 µg/mL. For the same compound, the MBC (A. junii 1397597) was over 64 µg/mL, the MIC (S. maltophilia 1221783) was over 64 µg/mL and the MBC (S. maltophilia 1221783) was over 64 µg/mL. It also gave an MIC (A. haemolyticus 1655843; A. haemolyticus 1655843, 24 h) of over 64 µg/mL, an MBC (A. haemolyticus 1655843) of over 64 µg/mL and an MIC (A. guillouiae 1285286) of over 64 µg/mL. For the same compound, the MBC (A. guillouiae 1285286) was over 64 µg/mL, the “terminal half-life, median (range)” value ([2]; Antony et al 1991) was 168 (111-278) h and the “terminal half-life, mean (±SD)” value ([2]; Outman et al 1990) was 157 (±93) h. For the same compound, the “Elimination of non-multiplying stationary phase bacteria” value [3] was “not as mono substances”, the MIC (S. maltophilia 1237289; inoculum 5*10^5 CFU/ml, 24 h) was >64 (>64) mg/l and the MIC (S. maltophilia 1237289; after 48 h growth (values in brackets)) was >64 (>64) mg/l. The MBC (S. maltophilia 1237289; inoculum 5*10^5 CFU/ml) was over 64 µg/mL.

With `CCC(C)CCCC(=O)N[C@@H](CCN)C(=O)N[C@H](C(=O)N[C@@H](CCN)C(=O)N[C@H]1CCNC(=O)[C@H]([C@@H](C)O)NC(=O)[C@H](CCN)NC(=O)[C@H](CCN)NC(=O)[C@H](CC(C)C)NC(=O)[C@@H](CC(C)C)NC(=O)[C@H](CCN)NC1=O)[C@@H](C)O` (stereo partly drawn) [CS, colistin sulphate] ({Heptanoyl(5-Me)}-[Dab]T[Dab][Dab][Dab][dL]L[Dab][Dab]T; lactam 4-C) the MIC (A. nosocomialis 1461911; Acinetobacter nosocomialis, 1461911, 24 h, read-out: MIC) was at least 4 µg/mL, the MBC (A. nosocomialis 1461911; Acinetobacter nosocomialis, 1461911, read-out: MBC) was 8 µg/mL and the “Elimination of bacteria from biofilm” value [1] was “not so well the case”. For the same compound, the “Colony counts, incubated with as compared without a catheter piece” value [1] was “higher colony counts”, the “Increase (at least two dilution steps) of MIC, incubated with as compared without a catheter piece” value [1] was “about one third” and the MBC (A. junii 1397597; Acinetobacter junii, 1397597, read-out: MBC) was 8 µg/mL. For the same compound, the MIC (A. junii 1397597; Acinetobacter junii, read-out: MIC) was 2 µg/mL, the MIC (S. maltophilia 1221783; Stenotrophomonas maltophilia, 1221783, 24 h, read-out: MIC) was 0.5 µg/mL and the MBC (S. maltophilia 1221783; Stenotrophomonas maltophilia, read-out: MBC) was 2 µg/mL. It also gave an MBC (A. haemolyticus 1655843; Acinetobacter haemolyticus, 1655843, read-out: MBC) of over 16 µg/mL, an MIC (A. guillouiae 1285286; read-out: MIC) of 2 µg/mL and an MBC (A. guillouiae 1285286; read-out: MBC) of 4 µg/mL. The “Elimination of non-multiplying stationary phase bacteria” value [3] was “not as mono substances”, the MIC (S. maltophilia 1237289; Stenotrophomonas maltophilia, inoculum 5*10^5 CFU/ml, 24 h, read-out: MIC) was 0.5 µg/mL and the MIC (S. maltophilia 1237289; Stenotrophomonas maltophilia, after 48 h growth (values in brackets), read-out: MIC) was 8 µg/mL. The MBC (S. maltophilia 1237289; Stenotrophomonas maltophilia, inoculum 5*10^5 CFU/ml, read-out: MBC) was 8 µg/mL.
